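The compound was tested at five concentrations on cells cultured in 96-well plates, with a 48-hour exposure period. TGI denotes the concentration required for complete inhibition of growth.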
Tests used:
Experiment in all cases: NCI anticancer screen, dose series, 48 h
786-0 renal = tested on: 786-0 renal
A498 renal = tested on: A498 renal
A549 NSCLC = tested on: A549 NSCLC
ACHN renal = tested on: ACHN renal
CAKI-1 renal = tested on: CAKI-1 renal
CCRF-CEM leukemia = tested on: CCRF-CEM leukemia
COLO 205 colon = tested on: COLO 205 colon
DU-145 prostate = tested on: DU-145 prostate
EKVX NSCLC = tested on: EKVX NSCLC
HCT-116 colon = tested on: HCT-116 colon
HCT-15 colon = tested on: HCT-15 colon
HL-60(TB) leukemia = tested on: HL-60(TB) leukemia
HOP-62 NSCLC = tested on: HOP-62 NSCLC
HOP-92 NSCLC = tested on: HOP-92 NSCLC
HS 578T breast = tested on: HS 578T breast
HT29 colon = tested on: HT29 colon
IGROV1 ovarian = tested on: IGROV1 ovarian
K-562 leukemia = tested on: K-562 leukemia
KM12 colon = tested on: KM12 colon
LOX IMVI melanoma = tested on: LOX IMVI melanoma
M14 melanoma = tested on: M14 melanoma
MALME-3M melanoma = tested on: MALME-3M melanoma
MCF7 breast = tested on: MCF7 breast
MDA-MB-231 breast = tested on: MDA-MB-231 breast
MDA-MB-435 = tested on: MDA-MB-435
MDA-N = tested on: MDA-N
MOLT-4 leukemia = tested on: MOLT-4 leukemia
NCI-H226 lung = tested on: NCI-H226 lung
NCI-H23 lung = tested on: NCI-H23 lung
NCI-H460 lung = tested on: NCI-H460 lung
NCI-H522 lung = tested on: NCI-H522 lung
NCI/ADR-RES ovarian = tested on: NCI/ADR-RES ovarian
OVCAR-3 ovarian = tested on: OVCAR-3 ovarian
OVCAR-4 ovarian = tested on: OVCAR-4 ovarian
OVCAR-5 ovarian = tested on: OVCAR-5 ovarian
OVCAR-8 ovarian = tested on: OVCAR-8 ovarian
PC-3 prostate = tested on: PC-3 prostate
RPMI-8226 leukemia = tested on: RPMI-8226 leukemia
RXF 393 renal = tested on: RXF 393 renal
SF-268 CNS = tested on: SF-268 CNS
SF-295 CNS = tested on: SF-295 CNS
SF-539 CNS = tested on: SF-539 CNS
SK-MEL-2 melanoma = tested on: SK-MEL-2 melanoma
SK-MEL-28 melanoma = tested on: SK-MEL-28 melanoma
SK-MEL-5 melanoma = tested on: SK-MEL-5 melanoma
SK-OV-3 ovarian = tested on: SK-OV-3 ovarian
SN12C renal = tested on: SN12C renal
SNB-19 CNS = tested on: SNB-19 CNS
SNB-75 CNS = tested on: SNB-75 CNS
SR leukemia = tested on: SR leukemia
SW-620 colon = tested on: SW-620 colon
TK-10 renal = tested on: TK-10 renal
U251 CNS = tested on: U251 CNS
UACC-257 melanoma = tested on: UACC-257 melanoma
UACC-62 melanoma = tested on: UACC-62 melanoma
UO-31 renal = tested on: UO-31 renal
BT-549 breast = tested on: BT-549 breast
HCC-2998 colon = tested on: HCC-2998 colon
T-47D breast = tested on: T-47D breast

`O=[N+]1[C@H](c2ccccc2)[C@H](c2ccccc2)N1[O-]` showed a TGI (786-0 renal) of 26.8 µM, a TGI (A498 renal) of 67.3 µM and a TGI (A549 NSCLC) of 41.1 µM. It also gave a TGI (ACHN renal) of 32.3 µM, a TGI (CAKI-1 renal) of 19.7 µM and a TGI (CCRF-CEM leukemia) of 36.3 µM. For the same compound, the TGI (COLO 205 colon) was 37.9 µM, the TGI (DU-145 prostate) was 30.1 µM and the TGI (EKVX NSCLC) was 33.8 µM. It also gave a TGI (HCT-116 colon) of 30.6 µM, a TGI (HCT-15 colon) of 24.7 µM and a TGI (HL-60(TB) leukemia) of 5.48 µM. It also gave a TGI (HOP-62 NSCLC) of 40.7 µM, a TGI (HOP-92 NSCLC) of 30.2 µM and a TGI (HS 578T breast) of over 100 µM. The TGI (HT29 colon) was 33.1 µM, the TGI (IGROV1 ovarian) was 26.8 µM and the TGI (K-562 leukemia) was over 100 µM. It also gave a TGI (KM12 colon) of 45.3 µM, a TGI (LOX IMVI melanoma) of 29.2 µM and a TGI (M14 melanoma) of 29.6 µM. The TGI (MALME-3M melanoma) was 32 µM, the TGI (MCF7 breast) was 30.5 µM and the TGI (MDA-MB-231 breast) was 38.2 µM. It also gave a TGI (MDA-MB-435) of 34.3 µM, a TGI (MDA-N) of 30.7 µM and a TGI (MOLT-4 leukemia) of 55.2 µM. For the same compound, the TGI (NCI-H226 lung) was 38.9 µM, the TGI (NCI-H23 lung) was 32 µM and the TGI (NCI-H460 lung) was 43.2 µM. It also gave a TGI (NCI-H522 lung) of 24.2 µM, a TGI (NCI/ADR-RES ovarian) of 35.5 µM and a TGI (OVCAR-3 ovarian) of 30.1 µM. It also gave a TGI (OVCAR-4 ovarian) of 59.2 µM, a TGI (OVCAR-5 ovarian) of 35.8 µM and a TGI (OVCAR-8 ovarian) of 32.7 µM. The TGI (PC-3 prostate) was 31.6 µM, the TGI (RPMI-8226 leukemia) was 25.4 µM and the TGI (RXF 393 renal) was 28.3 µM. The TGI (SF-268 CNS) was 58.7 µM, the TGI (SF-295 CNS) was 38.6 µM and the TGI (SF-539 CNS) was 32.7 µM. For the same compound, the TGI (SK-MEL-2 melanoma) was 32.8 µM, the TGI (SK-MEL-28 melanoma) was 30.5 µM and the TGI (SK-MEL-5 melanoma) was 30.9 µM. It also gave a TGI (SK-OV-3 ovarian) of 96.5 µM, a TGI (SN12C renal) of 32.4 µM and a TGI (SNB-19 CNS) of 35.1 µM. It also gave a TGI (SNB-75 CNS) of 37.2 µM, a TGI (SR leukemia) of 37.7 µM and a TGI (SW-620 colon) of 28.2 µM. The TGI (TK-10 renal) was 30.9 µM, the TGI (U251 CNS) was 33.5 µM and the TGI (UACC-257 melanoma) was 26.3 µM. For the same compound, the TGI (UACC-62 melanoma) was 32.3 µM and the TGI (UO-31 renal) was 28.5 µM.

`Cc1cc(O)c(/C=N/C(=S)Nc2ccc(S(N)(=O)=O)cc2)c(=O)o1` was tested, and the TGI (786-0 renal) was over 100 µM, the TGI (A498 renal) was over 100 µM and the TGI (A549 NSCLC) was over 100 µM. The TGI (ACHN renal) was over 100 µM, the TGI (BT-549 breast) was over 100 µM and the TGI (CAKI-1 renal) was over 100 µM. The TGI (COLO 205 colon) was over 100 µM, the TGI (DU-145 prostate) was over 100 µM and the TGI (EKVX NSCLC) was over 100 µM. It also gave a TGI (HCC-2998 colon) of over 100 µM, a TGI (HCT-116 colon) of over 100 µM and a TGI (HCT-15 colon) of over 100 µM. The TGI (HL-60(TB) leukemia) was over 100 µM, the TGI (HOP-62 NSCLC) was over 100 µM and the TGI (HOP-92 NSCLC) was over 100 µM. For the same compound, the TGI (HT29 colon) was over 100 µM, the TGI (IGROV1 ovarian) was over 100 µM and the TGI (KM12 colon) was over 100 µM. It also gave a TGI (LOX IMVI melanoma) of over 100 µM, a TGI (M14 melanoma) of over 100 µM and a TGI (MCF7 breast) of over 100 µM. For the same compound, the TGI (MDA-MB-231 breast) was over 100 µM, the TGI (MDA-MB-435) was over 100 µM and the TGI (MDA-N) was over 100 µM. It also gave a TGI (MOLT-4 leukemia) of over 100 µM, a TGI (NCI-H226 lung) of over 100 µM and a TGI (NCI-H23 lung) of over 100 µM. The TGI (NCI-H460 lung) was over 100 µM, the TGI (NCI/ADR-RES ovarian) was over 100 µM and the TGI (OVCAR-3 ovarian) was over 100 µM. The TGI (OVCAR-4 ovarian) was over 100 µM, the TGI (OVCAR-5 ovarian) was over 100 µM and the TGI (OVCAR-8 ovarian) was over 100 µM. It also gave a TGI (RXF 393 renal) of over 100 µM, a TGI (SF-268 CNS) of over 100 µM and a TGI (SF-295 CNS) of over 100 µM. For the same compound, the TGI (SF-539 CNS) was over 100 µM, the TGI (SK-MEL-2 melanoma) was over 100 µM and the TGI (SK-MEL-28 melanoma) was over 100 µM. The TGI (SK-MEL-5 melanoma) was over 100 µM, the TGI (SK-OV-3 ovarian) was over 100 µM and the TGI (SN12C renal) was over 100 µM. It also gave a TGI (SNB-19 CNS) of over 100 µM, a TGI (SNB-75 CNS) of over 100 µM and a TGI (SW-620 colon) of over 100 µM. For the same compound, the TGI (T-47D breast) was over 100 µM, the TGI (TK-10 renal) was over 100 µM and the TGI (U251 CNS) was over 100 µM. The TGI (UACC-257 melanoma) was over 100 µM, the TGI (UACC-62 melanoma) was over 100 µM and the TGI (UO-31 renal) was over 100 µM.

Work on `O=C(O)CCCCC1CCSS1` (stereo not given) yielded a TGI (786-0 renal) of over 100 µM, a TGI (A549 NSCLC) of over 100 µM and a TGI (ACHN renal) of over 100 µM. The TGI (CAKI-1 renal) was over 100 µM, the TGI (CCRF-CEM leukemia) was over 100 µM and the TGI (COLO 205 colon) was over 100 µM. The TGI (DU-145 prostate) was over 100 µM, the TGI (EKVX NSCLC) was over 100 µM and the TGI (HCC-2998 colon) was over 100 µM. It also gave a TGI (HCT-116 colon) of over 100 µM, a TGI (HCT-15 colon) of over 100 µM and a TGI (HL-60(TB) leukemia) of over 100 µM. The TGI (HOP-62 NSCLC) was over 100 µM, the TGI (HOP-92 NSCLC) was over 100 µM and the TGI (HS 578T breast) was over 100 µM. For the same compound, the TGI (HT29 colon) was over 100 µM, the TGI (IGROV1 ovarian) was over 100 µM and the TGI (K-562 leukemia) was over 100 µM. For the same compound, the TGI (KM12 colon) was over 100 µM, the TGI (LOX IMVI melanoma) was over 100 µM and the TGI (M14 melanoma) was over 100 µM. The TGI (MALME-3M melanoma) was over 100 µM, the TGI (MCF7 breast) was over 100 µM and the TGI (MDA-MB-231 breast) was over 100 µM. It also gave a TGI (MDA-MB-435) of over 100 µM, a TGI (MDA-N) of over 100 µM and a TGI (MOLT-4 leukemia) of over 100 µM. It also gave a TGI (NCI-H226 lung) of over 100 µM, a TGI (NCI-H23 lung) of over 100 µM and a TGI (NCI-H460 lung) of over 100 µM. It also gave a TGI (NCI-H522 lung) of over 100 µM, a TGI (NCI/ADR-RES ovarian) of over 100 µM and a TGI (OVCAR-3 ovarian) of over 100 µM. The TGI (OVCAR-4 ovarian) was over 100 µM, the TGI (OVCAR-5 ovarian) was over 100 µM and the TGI (OVCAR-8 ovarian) was over 100 µM. The TGI (PC-3 prostate) was over 100 µM, the TGI (RPMI-8226 leukemia) was over 100 µM and the TGI (SF-268 CNS) was over 100 µM. It also gave a TGI (SF-295 CNS) of over 100 µM, a TGI (SF-539 CNS) of over 100 µM and a TGI (SK-MEL-2 melanoma) of over 100 µM. The TGI (SK-MEL-28 melanoma) was over 100 µM, the TGI (SK-MEL-5 melanoma) was over 100 µM and the TGI (SNB-19 CNS) was over 100 µM. For the same compound, the TGI (SNB-75 CNS) was over 100 µM, the TGI (SR leukemia) was over 100 µM and the TGI (SW-620 colon) was over 100 µM. The TGI (T-47D breast) was over 100 µM, the TGI (TK-10 renal) was over 100 µM and the TGI (U251 CNS) was over 100 µM. It also gave a TGI (UACC-257 melanoma) of over 100 µM and a TGI (UO-31 renal) of over 100 µM.

From PubChem BioAssay (NCI)
